This passage reports TGI results from PubChem BioAssay (NCI).

The structures appear in SMILES notation.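 Following 48 hours of exposure in 96-well plates, responses at five concentrations were used to interpolate endpoints linearly. TGI denotes the concentration required for complete inhibition of growth.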

Among the test systems are TK-10 renal; NCI-H226 lung; SNB-19 CNS; HT29 colon; SK-MEL-2 melanoma; SF-295 CNS; M14 melanoma; SK-MEL-5 melanoma; OVCAR-5 ovarian; CCRF-CEM leukemia; SN12C renal; NCI-H23 lung; OVCAR-8 ovarian; A549 NSCLC; HCC-2998 colon; NCI/ADR-RES ovarian.
Holding throughout (test): DTP human tumour cell line panel, 48 h

A word on the TGI: it is the concentration giving total growth inhibition. Read a low TGI as greater sensitivity of the cells. `C=CCNC(=O)N(CCCC(NC(C)=O)C(=O)NCc1ccccc1)Cc1ccccc1` (centres undefined): the total growth inhibition concentration (TGI) with TK-10 renal, in the test with NCI-H226 lung, in the test with SNB-19 CNS, with HT29 colon, with SK-MEL-2 melanoma and in the test on SF-295 CNS was over 100 µM each time. For the same compound, the concentration for total growth inhibition (TGI) in the test with M14 melanoma, with SK-MEL-5 melanoma, in the test with OVCAR-5 ovarian, in the test on CCRF-CEM leukemia, with SN12C renal and in the test on NCI-H23 lung was over 100 µM each time. Besides, the TGI in the test with OVCAR-8 ovarian and in the test with A549 NSCLC was over 100 µM each time.

With `O=c1c2nc3ccccc3c(=O)n2ncn1-c1ccccc1Cl`, the concentration for total growth inhibition (TGI) in the test with HCC-2998 colon, with TK-10 renal, in the test with NCI-H226 lung, in the test with SNB-19 CNS, in the test with HT29 colon and in the test on SK-MEL-2 melanoma was over 100 µM in each case. The TGI in the test on SF-295 CNS, in the test on M14 melanoma, with SK-MEL-5 melanoma, with OVCAR-5 ovarian, with CCRF-CEM leukemia and in the test with SN12C renal was over 100 µM in each case. Also, the TGI in the test on NCI-H23 lung, in the test with OVCAR-8 ovarian and in the test with A549 NSCLC was over 100 µM throughout.

Regarding `CCOc1ccc(/C(Cl)=C(\C=O)c2ccc(OC)c(OC)c2)cc1OCC`, the TGI with HCC-2998 colon, with TK-10 renal, with NCI-H226 lung, with SNB-19 CNS, in the test with HT29 colon and in the test on SK-MEL-2 melanoma was over 100 µM in each case. Also, the concentration for total growth inhibition (TGI) was over 100 µM with SF-295 CNS; over 100 µM in the test on M14 melanoma; 64.9 µM in the test with SK-MEL-5 melanoma; over 100 µM in the test with OVCAR-5 ovarian; over 100 µM with CCRF-CEM leukemia; over 100 µM in the test on SN12C renal. Moreover, the TGI in the test on NCI-H23 lung, in the test with OVCAR-8 ovarian and in the test with A549 NSCLC was over 100 µM each time.

With `Cc1cn(C2CC(O)C(COC(=O)NCCC(F)(F)C(F)(F)C(F)(F)C(F)(F)F)O2)c(=O)[nH]c1=O` (centres undefined), the concentration for total growth inhibition (TGI) with HCC-2998 colon, with TK-10 renal, in the test with NCI-H226 lung, in the test with SNB-19 CNS, in the test on HT29 colon and in the test with SF-295 CNS was over 100 µM in each case. Moreover, the TGI in the test with M14 melanoma, in the test with SK-MEL-5 melanoma, in the test with OVCAR-5 ovarian, with CCRF-CEM leukemia, with SN12C renal and in the test with NCI-H23 lung was over 100 µM in each case. Further, the TGI in the test on OVCAR-8 ovarian and in the test on A549 NSCLC was over 100 µM in each case.

Take `CC1CN(c2ccc(Cl)cc2)CC(C)OC(=O)O1` (centres undefined): the TGI in the test on HCC-2998 colon, in the test with TK-10 renal, in the test on NCI-H226 lung, in the test with SNB-19 CNS, in the test with HT29 colon and in the test with SK-MEL-2 melanoma was over 100 µM throughout. In addition, the TGI in the test with SF-295 CNS, in the test on M14 melanoma, in the test on SK-MEL-5 melanoma, in the test on OVCAR-5 ovarian, in the test with CCRF-CEM leukemia and in the test with SN12C renal was over 100 µM each time. Also, the TGI in the test on NCI-H23 lung, with OVCAR-8 ovarian and in the test on A549 NSCLC was over 100 µM in each case.

In the case of `Cc1cccc(N(C(=O)Nc2ccc(Cl)c(Cl)c2)C2=NCC(C)S2)c1` (centres undefined), the TGI in the test on HCC-2998 colon is over 100 µM; in the test on TK-10 renal, 80.3 µM; in the test on SNB-19 CNS, over 100 µM; with HT29 colon, over 100 µM; in the test with SK-MEL-2 melanoma, over 100 µM; with SF-295 CNS it was over 100 µM. The TGI in the test with M14 melanoma is over 100 µM; in the test with SK-MEL-5 melanoma, 45.8 µM; in the test with OVCAR-5 ovarian it was over 100 µM; in the test on CCRF-CEM leukemia it was over 100 µM; in the test with NCI/ADR-RES ovarian it was over 100 µM; in the test with SN12C renal, over 100 µM. Moreover, the TGI with NCI-H23 lung, in the test on OVCAR-8 ovarian and with A549 NSCLC was over 100 µM in each case.

In the case of `CC(C)CC(NC(=O)OC(C)(C)C)C(=O)Nc1ccc(Nc2nc(F)nc(-c3c4ccccc4c4n3CCS4)n2)cc1` (centres undefined), the TGI in the test on HCC-2998 colon is 35 µM; in the test on TK-10 renal, 57.5 µM; with SNB-19 CNS, 36.9 µM; in the test with HT29 colon, 34.8 µM; with SK-MEL-2 melanoma, 33.6 µM; in the test with SF-295 CNS, 35.9 µM. The TGI with M14 melanoma stood at 35.1 µM; in the test on SK-MEL-5 melanoma it was 41.2 µM; in the test on OVCAR-5 ovarian, 44.7 µM; in the test on CCRF-CEM leukemia, 16.9 µM; in the test with SN12C renal it was 43.5 µM; in the test on NCI-H23 lung, 33.1 µM. For the same compound, the TGI in the test on OVCAR-8 ovarian is 38.3 µM; in the test with A549 NSCLC, over 100 µM.

Take `COc1ccc(N=Cc2ccc(N(CCC#N)S(=O)(=O)c3ccccc3)cc2)cc1`: the TGI in the test with TK-10 renal, in the test with NCI-H226 lung, in the test with SNB-19 CNS, with HT29 colon, in the test on SK-MEL-2 melanoma and in the test with SF-295 CNS was over 100 µM each time. Further, the TGI in the test on M14 melanoma, in the test with SK-MEL-5 melanoma, in the test on OVCAR-5 ovarian, in the test with CCRF-CEM leukemia, with SN12C renal and with NCI-H23 lung was over 100 µM in each case. Besides, the concentration for total growth inhibition (TGI) in the test with OVCAR-8 ovarian and in the test on A549 NSCLC was over 100 µM in each case.

As for `Cc1nn(C(=O)Cc2ccccc2)c2c1C(c1ccc(O)cc1O)SC(N)=N2` (centres undefined), the TGI in the test with HCC-2998 colon, in the test with TK-10 renal, with NCI-H226 lung, with SNB-19 CNS, in the test with HT29 colon and in the test on SF-295 CNS was over 100 µM each time. The TGI in the test with M14 melanoma, in the test with SK-MEL-5 melanoma, in the test on CCRF-CEM leukemia, in the test with SN12C renal, in the test on NCI-H23 lung and in the test on OVCAR-8 ovarian was over 100 µM throughout. The compound also registered a total growth inhibition concentration (TGI) in the test on A549 NSCLC of over 100 µM.
